Experimental data taken from patent US10407467B2, “Polymyxin derivatives and their use in combination therapy together with different antibiotics” (priority 2013, dated 2019).
Structures can show the parent of a compound that is named as a salt. Numbered stars: 1 amine (or outer) side, 2 acyl side, 3 side chain; on linkers, the order of the positions; unused ones are H or OH. Bridge positions count the residues as written; N and C are the ends. Square brackets hold non-standard residues; d marks the D form. Peptide text beside a SMILES is read from it. * marks the point of attachment. ξ: configuration not given here. Cyclohexanoyl(cis-4-NH2) = N[C@H]1CC[C@@H](C(=O)*)CC1; GABA(4S-Me) = C[C@@H](CCC(=O)[*:2])N[*:1]; X17 = CN1CCN(c2ccc(C(=O)*)cc2)CC1; NMeGABA = CN(CCCC(=O)[*:2])[*:1]; X8 = N[C@@H]1CC[C@H](C(=O)*)C1; Thr(3ξ) = CC(O)[C@H](N)C(=O)O; Dab = NCC[C@H](N)C(=O)O; Inp = O=C(O)C1CCNCC1; Glycolyl = O=C(CO)*

Tests used:
Type in all cases: cell-based
[1] = system: Pseudomonas aeruginosa; assay: MIC, sole activity (no second agent); settings: in the absence of Rifampicin; strain ATCC27853
In short: (§1)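 Inoculum: direct colony suspension (18-24 h MH agar), 0.5 McFarland. Medium: cation-adjusted MHB. Up to 4 strains/species; reported relative to Polymyxin B.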

[2] = system: Klebsiella pneumoniae; assay: MIC, sole activity (no second agent); settings: in the absence of Rifampicin; strain ATCC 4352
In short: as §1

[3] = system: Escherichia coli; assay: MIC, sole activity (no second agent); settings: in the absence of Rifampicin; strain ATCC25922
In short: as §1

[4] = system: Pseudomonas aeruginosa; assay: MIC, compound in combination with a second agent (broth microdilution); settings: 1:1 (wt:wt) combination with Rifampicin; for MIC P. aeruginosa ATCC CRM-9027: strain ATCC CRM-9027
In short: (§2)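 Compound and second agent (e.g. rifampicin) were combined 1:1 w/w, compound weighed as its TFA or sulphate salt. Inoculum was a direct colony suspension from 18-24 hour Mueller-Hinton agar at 0.5 McFarland. MIC is the total drug concentration; lower of duplicates reported, modal value when tested repeatedly.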

[5] = system: Klebsiella pneumoniae; assay: as above; settings: 1:1 (wt:wt) combination with Rifampicin; for MIC K. pneumoniae NCTC 13438: strain NCTC 13438; for MIC K. pneumoniae ATCC 4352: strain ATCC 4352
In short: as §2

[6] = system: Acinetobacter baumannii; assay: as above; settings: 1:1 (wt:wt) combination with Rifampicin, MIC = total drug concentration; for MIC A. baumannii NCTC 13424: strain NCTC 13424
In short: as §2

[7] = system: Escherichia coli; assay: as above; settings: 1:1 (wt:wt) combination with Rifampicin
In short: as §2

[8] = MIC = total drug concentration, strain CCUG 59626
[9] = MIC = total drug concentration, strain ATCC-BAA-2146
[10] = MIC = total drug concentration, strain CCUG-59348
[11] = MIC = total drug concentration, strain ATCC 27853
[12] = MIC is total drug concentration
[13] = MIC = total drug concentration, strain ATCC25922

Compound | MIC P. aeruginosa ATCC 27853 [1] [micrograms/mL] | MIC K. pneumoniae ATCC 4352 [2] [micrograms/mL] | MIC E. coli ATCC25922 [3] [micrograms/mL] | MIC P. aeruginosa CCUG 59626 [4, 8] [micrograms/mL] | MIC K. pneumoniae ATCC-BAA-2146 [5, 9] [micrograms/mL] | MIC K. pneumoniae CCUG-59348 [5, 10] [micrograms/mL] | MIC A. baumannii NCTC 13424 [6] [micrograms/mL] | MIC K. pneumoniae NCTC 13438 ([5]; MIC = total drug concentration) [micrograms/mL] | MIC P. aeruginosa ATCC 27853 [4, 11] [micrograms/mL] | MIC E. coli ATCC25922 [7, 13] [micrograms/mL] | other results
CC(C)C[C@@H]1NC(=O)[C@@H](Cc2ccccc2)NC(=O)[C@H](CCN)NC(=O)[C@@H](NC(=O)[C@H](CCN)NC(=O)[C@@H](NC(=O)CC[C@H](C)N)C(C)O)CCNC(=O)[C@H](C(C)O)NC(=O)[C@H](CCN)NC(=O)[C@H](CCN)NC1=O (stereo partly drawn) [Example 24, 4S-aminopentanoyl polymyxin B nonapeptide] ({GABA(4S-Me)}-[Thr(3ξ)][Dab][Dab][Dab][dF]L[Dab][Dab][Thr(3ξ)]; lactam 3-C) | 0.25 | 0.5 | >32 | 0.25 | 0.5 | 8 | 0.5 | – | – | – | –
CC(C)C[C@@H]1NC(=O)[C@@H](Cc2ccccc2)NC(=O)[C@H](CCN)NC(=O)[C@@H](NC(=O)[C@H](CCN)NC(=O)[C@@H](NC(=O)[C@H]2CC[C@@H](N)CC2)C(C)O)CCNC(=O)[C@H](C(C)O)NC(=O)[C@H](CCN)NC(=O)[C@H](CCN)NC1=O (stereo partly drawn) [Example 20, Cis-4-aminocyclohexane carbonyl polymyxin B nonapeptide] ({Cyclohexanoyl(cis-4-NH2)}-[Thr(3ξ)][Dab][Dab][Dab][dF]L[Dab][Dab][Thr(3ξ)]; lactam 3-C) | 0.125 | 0.125 | 2 | 0.125 | 0.25 | 4 | <0.06 | 0.25 | – | – | MIC P. aeruginosa ATCC-47 ([4]; MIC = total drug concentration, strain ATCC-47): 0.125 micrograms/mL; MIC A. baumannii CCUG57249 ([6]; strain CCUG57249): ≤0.06 micrograms/mL
CNCCCC(=O)N[C@H](C(=O)N[C@@H](CCN)C(=O)N[C@H]1CCNC(=O)[C@H](C(C)O)NC(=O)[C@H](CCN)NC(=O)[C@H](CCN)NC(=O)[C@H](CC(C)C)NC(=O)[C@@H](Cc2ccccc2)NC(=O)[C@H](CCN)NC1=O)C(C)O (stereo partly drawn) [Example 16, 4-(N-methylamino)-butanoyl polymyxin B nonapeptide] (NMeGABA-[Thr(3ξ)][Dab][Dab][Dab][dF]L[Dab][Dab][Thr(3ξ)]; lactam 3-C) | 0.25 | 0.5 | 0.5 | 0.125 | – | – | 0.125 | 0.5 | – | – | MIC P. aeruginosa ATCC CRM-9027 ([4]; MIC = total drug concentration): 0.125 micrograms/mL
CC(C)C[C@@H]1NC(=O)[C@@H](Cc2ccccc2)NC(=O)[C@H](CCN)NC(=O)[C@@H](NC(=O)[C@H](CCN)NC(=O)[C@@H](NC(=O)CO)C(C)O)CCNC(=O)[C@H](C(C)O)NC(=O)[C@H](CCN)NC(=O)[C@H](CCN)NC1=O (stereo partly drawn) [Example 8, Hydroxyacetyl polymyxin B nonapeptide] (Glycolyl-[Thr(3ξ)][Dab][Dab][Dab][dF]L[Dab][Dab][Thr(3ξ)]; lactam 3-C) | 0.25 | 8 | 32 | 0.25 | 2 | 8 | 0.5 | – | – | – | –

More lines, main results first:

MIC P. aeruginosa ATCC 27853 [1] [micrograms/mL] | MIC K. pneumoniae ATCC 4352 [2] [micrograms/mL] | MIC E. coli ATCC25922 [3] [micrograms/mL] | MIC P. aeruginosa CCUG 59626 [4, 8] [micrograms/mL] | MIC K. pneumoniae ATCC-BAA-2146 [5, 9] [micrograms/mL] | MIC K. pneumoniae CCUG-59348 [5, 10] [micrograms/mL] | MIC A. baumannii NCTC 13424 [6] [micrograms/mL] | MIC K. pneumoniae NCTC 13438 ([5]; MIC = total drug concentration) [micrograms/mL] | MIC P. aeruginosa ATCC 27853 [4, 11] [micrograms/mL] | MIC E. coli ATCC25922 [7, 13] [micrograms/mL] | Compound | other results
– | – | – | 0.25 | 1 | 4 | – | – | 0.25 | 0.125 | CC(C)C[C@@H]1NC(=O)[C@@H](Cc2ccccc2)NC(=O)[C@H](CCN)NC(=O)[C@@H](NC(=O)[C@H](CCN)NC(=O)[C@@H](NC(=O)c2ccc(N3CCN(C)CC3)cc2)C(C)O)CCNC(=O)[C@H](C(C)O)NC(=O)[C@H](CCN)NC(=O)[C@H](CCN)NC1=O (stereo partly drawn) [Example 55, 4-(4-Methyl-piperazin-1-yl) benzoyl polymyxin B nonapeptide] (X17-[Thr(3ξ)][Dab][Dab][Dab][dF]L[Dab][Dab][Thr(3ξ)]; lactam 3-C) | MIC P. aeruginosa ATCC 27853 [4, 12]: 0.25 micrograms/mL; MIC P. aeruginosa CCUG 59626 [4, 12]: 0.25 micrograms/mL; MIC K. pneumoniae ATCC-BAA-2146 [5, 12]: 1 micrograms/mL; MIC K. pneumoniae CCUG-59348 [5, 12]: 4 micrograms/mL; MIC E. coli ATCC25922 [7, 12]: 0.125 micrograms/mL
– | – | – | – | – | – | – | – | – | <0.06 | CC(C)C[C@@H]1NC(=O)[C@@H](Cc2ccccc2)NC(=O)[C@H](CCN)NC(=O)[C@@H](NC(=O)[C@H](CCN)NC(=O)[C@@H](NC(=O)[C@H]2CC[C@@H](N)C2)C(C)O)CCNC(=O)[C@H](C(C)O)NC(=O)[C@H](CCN)NC(=O)[C@H](CCN)NC1=O (stereo partly drawn) [Example 34B, (1S,3R)-3- Aminocyclopentane carbonyl polymyxin B nonapeptide] (X8-[Thr(3ξ)][Dab][Dab][Dab][dF]L[Dab][Dab][Thr(3ξ)]; lactam 3-C) | MIC P. aeruginosa ATCC CRM-9027 ([4]; MIC = total drug concentration): 0.25 micrograms/mL
– | – | – | ≤0.06 | 1 | 4 | – | – | ≤0.06 | 0.125 | CC(C)C[C@@H]1NC(=O)[C@@H](Cc2ccccc2)NC(=O)[C@H](CCN)NC(=O)[C@@H](NC(=O)[C@H](CCN)NC(=O)[C@@H](NC(=O)[C@H](CCN)NC(=O)C2CCNCC2)C(C)O)CCNC(=O)[C@H](C(C)O)NC(=O)[C@H](CCN)NC(=O)[C@H](CCN)NC1=O (stereo partly drawn) [Example 53, Piperidin-4-yl carbonyl-polymyxin B decapeptide, trifluoroacetate salt] (H-[Inp][Dab][Thr(3ξ)][Dab][Dab][Dab][dF]L[Dab][Dab][Thr(3ξ)]; lactam 5-C) | MIC K. pneumoniae ATCC 4352 ([5]; MIC = total drug concentration): ≤0.06 micrograms/mL
– | – | – | ≤0.06 | 1 | 4 | – | – | ≤0.06 | 0.25 | CC(C)C[C@@H]1NC(=O)[C@@H](Cc2ccccc2)NC(=O)[C@H](CCN)NC(=O)[C@@H](NC(=O)[C@H](CCN)NC(=O)[C@@H](NC(=O)[C@H](CCCCN)NC(=O)C2CCNCC2)C(C)O)CCNC(=O)[C@H](C(C)O)NC(=O)[C@H](CCN)NC(=O)[C@H](CCN)NC1=O (stereo partly drawn) [Example 54, Piperidin-4-yl carbonyl-L-Lys-polymyxin B nonapeptide, trifluoroacetate salt] (H-[Inp]K[Thr(3ξ)][Dab][Dab][Dab][dF]L[Dab][Dab][Thr(3ξ)]; lactam 5-C) | MIC K. pneumoniae ATCC 4352 ([5]; MIC = total drug concentration): 0.125 micrograms/mL
– | – | – | – | 1 | 2 | – | 1 | – | 0.5 | CC(C)C[C@@H]1NC(=O)[C@@H](CC(C)C)NC(=O)[C@H](CCN)NC(=O)[C@@H](NC(=O)[C@H](CCN)NC(=O)[C@@H](NC(=O)C(O)C2CCCCC2)C(C)O)CCNC(=O)[C@H](C(C)O)NC(=O)[C@H](CCN)NC(=O)[C@H](CCN)NC1=O (single isomer, unassigned; isomer 2) [Example 32, 2(RS)-(2-Hydroxy-2-cyclohexyl)ethanoyl polymyxin E nonapeptide, TFA salt. Isomer 2] | MIC E. coli NCTC9001 ([7]; MIC = total drug concentration, strain NCTC9001): 1 micrograms/mL
